In patent publication US10633388B2, “Pyrazolopyrimidone derivatives and methods of use thereof” (Shanghai Hengrui Pharmaceutical Co., Ltd., priority 2013, dated 2020):

Key:
monkey GnRHr = monkey GnRHr (Macaca fascicularis, UniProt A0A2K5WH82); assay: Monkey GnRHr inhibitory activity assay, Fluo-4 calcium signal in stably transfected CHO cells; type: cell-based; conditions: GnRH polypeptide stimulation, read-out: IC50, inhibition of the activity of Monkey GnRHr
Experimental: This assay was used to determine the inhibition effect of the present compounds on the activity of monkey GnRHr protein expressed by monkey GnRHr/CHO stably transfected cell lines.
A mammalian expression vector containing the monkey GnRHr gene was transferred into CHO cells by adding Lipofectamine®LTX reagent containing Plus™. Antibiotics were added the next day for screening to pick out the monoclonal cell lines.
The monkey GnRHr/CHO stably transfected cell lines were inoculated in 96-well plates with an inoculation density of 25,000 cells/well. The culture medium was removed the next day, and loading buffer containing Fluo-4 dye was added to the plate ([…]) and incubated for 30 minutes at 37° C. The plate was moved to room temperature and equilibrated for 10 minutes. Each compound was diluted with DMSO to seven concentration gradients of 100 μM, 10 μM, 1 μM, 0.1 μM, 0.01 μM, 0.001 μM, 0.0001 μM. […] After automated addition of 50 μL of GnRH polypeptide stimulant solution, the value was immediately detected at 494/516 […] by a microplate reader (flexstation 3). IC50 values of the compounds were calculated by software from different fluorescence signals at various corresponding concentrations.
The inhibitory activity of the present compounds on monkey GnRHr was determined by the above assay, and IC50 values are shown in Table 1.

[1] = Rabbit pharmacokinetics assay; type: in vivo, New Zealand rabbits; conditions: rabbits
Experimental: Rabbits were used as test animals. The plasma concentrations at various times were determined by LC/MS/MS after intragastric administration of the compound of Example 11, and intravenous administration of the compound of Example 11 to rabbits. The pharmacokinetic behavior of the present compound in rabbits was studied, and the pharmacokinetic features were evaluated.
Six (6) healthy New Zealand Rabbits (female) were evenly designated into 2 groups. The animals were purchased from Jie Sijie Corp. Ltd.
An appropriate amount of sample was weighed, and added with 0.5% CMC-Na to form […] suspension upon ultrasonic treatment.
Appropriate amounts of drugs were weighed, and dissolved with 1 ml DMSO and 1 ml of Tween 80. Saline solution was added to the final volume. […]
0.2 ml of blood was sampled before and 5 minutes, 0.25, 0.5, 1, 2, 4, 8, 11, 24 hours after intravenous administration, collected in a heparinized test tube, and centrifuged at 3500 rpm for 10 minutes to separate the plasma, which was stored at −20° C. […] The content of the test compound in the plasma of rabbits after administration of the compound by oral gavage and intravenous injection was determined by LC/MS/MS.

[2] = Seven-day toxicokinetic evaluation in rats; type: in vivo, SD rats
Experimental: SD rats were used as test animals. The plasma concentration at various times was determined by LC/MS/MS after administration of the compound of Example 11 (SHR147280) by oral gavage for 7 days. The compound toxicity in rodents was preliminarily assessed according to the potential toxicity reaction and severity level of the body.
Twenty-four (24) healthy adult SD rats (half female and half male) were evenly designated into 4 groups (6 for each group). The animals were purchased from Shanghai SLAC Laboratory Animal Corp. Ltd (laboratory animal production Certificate No. SCXK (HU) 2012-0002).
An appropriate amount of sample was accurately weighed, and added with some 0.5% CMC-Na to form an uniform suspension upon ultrasonicator grinding treatment, and then diluted to the final volume. The test sample solutions on day 1 and day 7 were kept for the determination of administration concentration of toxicokinetics.
Repeat oral doses were 80, 240, and 720 mg/kg, and administration concentrations were 8, 24, and 72 mg/ml respectively. The dosing volume was 10 ml/kg once daily for 7 days.
The blood was sampled on day 1 and day 7 after administration with sampling time before, and 1, 2, 4, 8 and 24 hours after oral administration on day 1, as well as before, and 1, 2, 4, 8, 24 and 48 hours after oral administration on day 7. The blood sample was collected in a heparinized test tube, and centrifuged to separate the plasma, which was stored at −20° C. The content of the test compound in the plasma of rats after administration of the compound by oral gavage was determined by LC/MS/MS.

[3] = Rat pharmacokinetics assay; type: in vivo; conditions: both sexes, Sprague-Dawley, plasma, SD rats, oral 10 mg/kg vs i.v. 5 mg/kg, read-out: Oral Bioavailability F
Experimental: Sprague-Dawley (SD) rats were used as test animals. The plasma concentrations at various times were determined by LC/MS/MS after intragastric administration of compounds of Example 2, Example 3, Example 5, Example 9, Example 10, Example 11, and Example 13, and intravenous administration of the compound of Example 11 to the rats. The pharmacokinetic behavior of the present compounds in rats was studied, and the pharmacokinetic features were evaluated.
Thirty-two (32) healthy adult SD rats (half female and half male) were evenly designated into 8 groups (4 for each group). The animals were purchased from Shanghai Super B&K Laboratory Animal Corp. Ltd (laboratory animal production Certificate No. SCXK (HU)2008-0016).
An appropriate amount of sample was weighed, and added with 0.5% CMC-Na to form a 1 mg/ml suspension upon ultrasonic treatment.
Appropriate amounts of drugs were weighed, and dissolved with 0.5 ml DMSO and 0.5 ml of Tween 80. Saline solution was added to the final volume. […]
The content of the test compound in the plasma of rats after administration of the compound by oral gavage was determined by LC/MS/MS.

[4] = Beagle pharmacokinetics assay; type: in vivo; conditions: beagles
Experimental: Beagles were used as test animals. The plasma concentrations at various times were determined by LC/MS/MS after intragastric administration of the compound of Example 11, and intravenous administration of the compound of Example 11 to beagles. The pharmacokinetic behavior of the present compound in beagles was studied, and the pharmacokinetic features were evaluated.
Eight (8) healthy beagles (half female and half male) were evenly designated into 2 groups. The animals were purchased from SuzhouXishan Zhongke Laboratory Animal Corp. Ltd.
An appropriate amount of sample was weighed, and added with 0.5% CMC-Na to form a 1.0 mg/ml suspension upon ultrasonic treatment;
Appropriate amounts of drugs were weighed, and dissolved with 5 ml DMSO and 5 ml of Tween 80. Saline solution was added to the final volume. […]
1.0 ml of blood was sampled from the foreleg vein before, and 0.25, 0.5, 1, 2, 4, 6, 8, 12, and 24 hours after oral administration, collected in a heparinized test tube, and centrifuged at 3500 rpm for 10 minutes to separate the plasma, which was stored at −20° C. […] The content of the test compound in the plasma of beagles after administration of the compound by oral gavage and intravenous injection was determined by LC/MS/MS.

ectopic endometrium = assay: In vivo pharmacodynamics test in rabbit endometriosis model; design: species or system New Zealand rabbits
Excerpt: Fifteen (15) healthy New Zealand rabbits (female) were evenly designated into 3 groups.
Rabbits were adaptive fed and quarantined for seven days, and subcutaneously injected with 30 g/kg of estradiol benzoate once daily for two days before surgery. When the model was established, rabbits were anesthetized with 3% sodium pentobarbital, and laparotomized sterilely. Then, one side of the uterus was separated and ligated with the uterine mesorectum vessel. Then, a section of the uterus was cut off and put into a warm saline dish, and then dissected longitudinally and the myometrium and endometrium were separated. A section of endometrium (about 0.5 cm by 0.5 cm) was seamed to the abdominal wall rich in blood vessels with the intimal surface facing toward the abdominal cavity. Three weeks after endometrium planting, the rabbits were laparotomized to check graft intimal size. […] Each group was administered by oral gavage once a day in a volume of 5 ml/kg, continuously for 28 days after successful modeling. Ultimately, the rabbit was weighed and the volume of ectopic endometrium was measured to evaluate the effect of the present compound on the endometrial activity.

[5] = women with endometriosis, 150 or 250 mg qd, vs leuprorelin depot 3.75 mg sc monthly or placebo; cited from earlier work

Sequence of monkey GnRHr (A0A2K5WH82 1-328): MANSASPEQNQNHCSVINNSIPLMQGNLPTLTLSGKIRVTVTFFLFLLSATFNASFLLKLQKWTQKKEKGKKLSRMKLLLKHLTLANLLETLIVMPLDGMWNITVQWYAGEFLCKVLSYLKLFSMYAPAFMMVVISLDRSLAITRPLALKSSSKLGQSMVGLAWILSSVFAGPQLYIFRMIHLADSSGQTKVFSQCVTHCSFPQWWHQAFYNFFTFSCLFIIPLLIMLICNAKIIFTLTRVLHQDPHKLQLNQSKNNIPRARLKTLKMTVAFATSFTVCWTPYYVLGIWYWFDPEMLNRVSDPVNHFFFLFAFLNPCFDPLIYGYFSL

Compound `CNC(=O)Nc1ccc(-n2nc3c(c2CN(C)C)c(=O)n(-c2ccc(OC)nn2)c(=O)n3Cc2c(F)cccc2F)cc1` [Example 9, 1-(4-(7-(2,6-difluorobenzyl)-3-((dimethylamino)methyl)-5-(6-methoxypyridazin-3-yl)-4,6-dioxo-4,5,6,7-tetrahydro-2H-pyrazolo[3,4-d]pyrimidin-2-yl)phenyl)-3-methylurea] has an IC50 (monkey GnRHr) of 23.2 nM.

With `CONC(=O)Nc1ccc(-n2nc3c(c2CN(C)C)c(=O)n(-c2ccc(OC)nn2)c(=O)n3Cc2c(F)cccc2F)cc1` [Example 11, 1-(4-(7-(2,6-difluorobenzyl)-3-((dimethylamino)methyl)-5-(6-methoxypyridazin-3-yl)-4,6-dioxo-4,5,6,7-tetrahydro-2H-pyrazolo[3,4-d]pyrimidin-2-yl)phenyl)-3-methoxyurea] the bioavailability ([1]; female, New Zealand, rabbit, plasma, oral 30 mg/kg vs intravenous injection 5 mg/kg, read-out: Oral Bioavailability F) was 92.9%, the “Apparent volume of distribution Vz/F” value ([1]; oral 30 mg/kg) was 10.719 ± 3.862 L/kg and the Death ([2]; both, SD, rat, in vivo, po, 720 mg/kg, 7 days) was “died on day 7 before dosing”. For the same compound, the lethal dose ([2]; both, SD, rat, in vivo, po, 7 days) was 720 mg/kg, the “MRT0-∞” value ([2]; female, SD, rat, in vivo, po, 240 mg/kg) was 9.63 h and the “safety window: NOAEL dose ratio (toxicological pharmacokinetic dose/pharmacodynamic dose)” value ([2]; rat 240 mg/kg / rabbit 30 mg/kg, preliminary evaluation) was 240/30 = 8. The urine indexes ([2]; rat, in vivo) was “no regularly abnormal changes”, the “Blood biochemistry: ALB (albumin) and ALP (alkaline phosphatase)” value ([2]; rat, in vivo, 720 mg/kg) was “significantly decreased” and the “Blood biochemistry: ALT (alanine aminotransferase)” value ([2]; rat, in vivo, 720 mg/kg) was “no statistical differences”. For the same compound, the “Blood biochemistry: BUN, CHOL, CREA, TBIL, TP and AST” value ([2]; rat, in vivo, 720 mg/kg) was “significantly increased”, the “Hematology: WBC, Neut, Lymph, EO and RET” value ([2]; rat, in vivo, 720 mg/kg) was “significantly decreased” and the “Relative organ coefficient of the thymus and spleen” value ([2]; rat, in vivo, 720 mg/kg) was “significantly reduced”. For the same compound, the “absolute wet weight of the adrenal gland” value ([2]; rat, in vivo, 720 mg/kg) was “significantly increased”, the “absolute wet weight of the thymus, heart, lung and spleen” value ([2]; rat, in vivo, 720 mg/kg) was “significantly decreased” and the food intake ([2]; rat, in vivo, 720 mg/kg) was “significantly reduced”. For the same compound, the “relative organ coefficient of the brain, liver, lung, kidney, and adrenal gland” value ([2]; rat, in vivo, 720 mg/kg) was “significantly increased”, the “potential toxic target organs” value ([2]; rat, in vivo, po) was “marrow hematopoietic system, thymus, heart, liver, lung, spleen, adrenal gland, ovary, and digestion system” and the bioavailability [3] was 76.6%. The “Clearance rate CL/F” value ([4]; oral 5 mg/kg) was 14.7 ± 4.2 mL/min/kg, the bioavailability ([4]; both sexes, beagle, dog, plasma, oral 5 mg/kg vs i.v. 2 mg/kg, read-out: Oral Bioavailability F) was 104% and the IC50 (monkey GnRHr) was 78.6 nM. The “inhibition for the ectopic endometrial volume” value (ectopic endometrium; 10 mg/kg oral once daily for 4 weeks) was “not obvious” and the “growth of ectopic endometrium” value (ectopic endometrium; 30 mg/kg oral once daily for 4 weeks, vs 0.5% CMC-Na control) was “significantly inhibited”.

In the case of `COc1cccc(-c2c(C)n(Cc3c(F)cccc3C(F)(F)F)c(=O)n(C[C@H](NCCCC(=O)O)c3ccccc3)c2=O)c1F` [elagolix, Elagolix], the serum estrogen level [5] is listed as “lower than that of the leuprorelin treatment group and placebo group”.
